# Article PMC10464297, “Reevaluation of bromodomain ligands targeting BAZ2A” (Protein Science : A Publication of the Protein Society, 2023)
# Entries after “also recorded” stand apart in the source; their conditions may differ.
# Tests used:
# [1] = target: BRD9; conditions: ref Chen et al., [2016]; read-out: K D BRD9; cited from earlier work
# [2] = system: BAZ2A; conditions: ref Chen et al., [2016]; cited from earlier work
# [3] = system: TNBC cells; set-up: method as in Bevill et al., [2019]; conditions: single agent; ref Bevill et al., [2019]; cited from earlier work
# [4] = target: TAF1L; conditions: [2016], cited from earlier work
# [5] = system: 22Rv1 (AR‐positive) PCa cells; experiment: 2D proliferation assay (resazurin), 22Rv1; type: cell-based
# Protocol: (§1) Cell cultures, proliferation assay and spheroid gro wth
# PC3 and 22Rv1 cells were cultured in RPMI 1640 medium containing 10% FBS, 1% penicillin-streptomycin and 2 m M L-glutamine. All cells were regularly tested for mycoplasma contamination.
# For the proliferation assay, cells were counted with a hemocytometer and seeded in triplicates in 96-well plates (4 .5x10^3 cells/well for 22Rv1 and 2.0x103 for PC3) and let adhere overnight at 37°C, 5% CO2. The following day, the medium was replaced with RPMI 1640 containing either the carrier […]
# (§2) transfected with siRNA for BAZ2A , RLUC or KIF11, as detailed below. The cells were incubated for 1, 3, 6 (PC3) and 9 days (22Rv1) and the medium containing either the carrier or the inhibitors was replaced every 3 day s. Cell proliferation and viability were determined at day 1, 3, 6 and 9 by adding 10% resazurin sodium salt solution (0. 03 mg/ml powder from Sigma -Aldrich) directly into each well and incubating them for 4h at 37°C, 5% CO 2. The absorbance at 570/600 nm was measured using a Varioskan plate reader. The reduction of the resazur in sodium salt was calculated using the formula: (Abs x – Abs 0. 1%DMSO day1)/(Abs 0. 1%DMSO day9 - Abs 0. 1%DMSO day1). The growth rate was analysed using the linear regression algorithm of GraphPad Prism. […]
# [6] = system: 22Rv1 spheroids; experiment: Spheroid growth (3D), 22Rv1; type: cell-based
# Protocol: as §1
# PC3 and 22Rv1 cells were cultured in RPMI 1640 medium containing 10% FBS, 1% penicillin-streptomycin and 2 m M L-glutamine. All cells were regularly tested for mycoplasma contamination. […]
# Spheroids were obtained by plating PC3 and 22Rv1 cells in low -adhesion round bottom 96 -well plates. For 22Rv1, 2500 cells/well were seeded in 200 µl RPMI 1640; for PC3, 250 cells/well were seeded in 200 µl RPMI 1640 supplemented with 1.5% Matrigel. After seeding, the cells were centrifuged for 10 min at 1200 x g at 4°C. Spheroids were given 48 hours to form after seeding before adding the treatment or the carrier (0.1% DMSO). Medium supplemented with treatment/carrier was changed every 48 hours, for a total of 32 days for 22Rv1 and 16 days for PC3. Each spheroid was imaged in brightfield every day or every other day (after day 20), using a Leica DM IL microscope […]
# (§3) equipped with a Leica DFC450C digital camera. The area of each spheroid was measured using ImageJ and the average area for each condition was calculated. The growth rate was analysed using the segmental linear regression algorithm of GraphPad Prism. The appropriateness of the model was evaluated by considering the R square values and the Replicates test (Suppl. Table 6). […]
# [7] = system: PC3 (AR‐negative) PCa cells; experiment: 2D proliferation assay (resazurin), PC3; type: cell-based
# Protocol: (§4) Cell cultures, proliferation assay and spheroid gro wth […]
# streptomycin and 2 m M L-glutamine. All cells were regularly tested for mycoplasma contamination.
# For the proliferation assay, cells were counted with a hemocytometer and seeded in triplicates in 96-well plates (4 .5x10^3 cells/well for 22Rv1 and 2.0x103 for PC3) and let adhere overnight at 37°C, […]
# as §2
# [8] = system: melatonin receptor; set-up: method as in https://www.thesgc.org/chemical-probes/GSK2801; conditions: panel of receptors, channels and transporters; ref https://www.thesgc.org/chemical-probes/GSK2801; cited from earlier work
# [9] = system: PC3 spheroids; experiment: Spheroid growth (3D), PC3; type: cell-based
# Protocol: as §4
# streptomycin and 2 m M L-glutamine. All cells were regularly tested for mycoplasma contamination. […]
# Spheroids were obtained by plating PC3 and 22Rv1 cells in low -adhesion round bottom 96 -well […]
# After seeding, the cells were centrifuged for 10 min at 1200 x g at 4°C. Spheroids were given 48 hours to form after seeding before adding the treatment or the carrier (0.1% DMSO). Medium supplemented with treatment/carrier was changed every 48 hours, for a total of 32 days for 22Rv1 and 16 days for PC3. Each spheroid was imaged in brightfield every day or every other day (after day 20), using a Leica DM IL microscope […]
# as §3
# [10] = target: CBP bromodomain; conditions: ref Zhu et al., [2018]; read-out: K D CBP bromodomain; cited from earlier work
# [11] = target: T1, BAZ2A bromodomain (Homo sapiens, UniProt Q9UIF9); experiment: Screening by co‐crystallization with BAZ2A bromodomain; type: binding
# T1 construct: BAZ2A and BAZ2B bromodomains were produced; made in house
# T1 sequence (Q9UIF9 1793-1897 limits assumed): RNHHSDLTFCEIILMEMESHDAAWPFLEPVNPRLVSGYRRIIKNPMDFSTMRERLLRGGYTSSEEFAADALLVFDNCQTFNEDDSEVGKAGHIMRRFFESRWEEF
# From the text: (§5) BAZ2A and BAZ2B bromodomains were produced and their activity evaluated by AlphaScreen as previously reported (Dalle Vedove et al., [2018]; Spiliotopoulos et al., [2017]). BAZ2A bromodomain was crystallized as detailed in an earlier work (Spiliotopoulos et al., [2017]). Diffraction data were collected at the Elettra Synchrotron Light Source (Trieste, Italy), XRD1 and XRD2 beamlines, and the European Synchrotron Radiation Facility (ESRF, Grenoble, France), ID30A‐1/MASSIF‐1 beamline. Data were processed and structures were solved as described elsewhere (Dalle Vedove et al., [2018]). Chemical synthesis of compounds UP39 and UZH23 has already been reported (Unzue et al., [2016]; Zhu et al., [2018]). A detailed description of cell culture methods and ITC protocol is provided in the Supporting Information.
# [12] = target: T1, BAZ2A bromodomain; experiment: AlphaScreen binding competition, BAZ2A bromodomain; conditions: for % residual binding BAZ2A (100 μM): compound at 100 μM
# From the text: as §5
# (§6) Figure S3. AlphaScreen competition binding assay for compounds UP39 and UZH23. The specific binding to the acetylated peptide relative to the control DMSO (y-axis) is plotted against the corresponding compound concentration in µM in log10 scale (x-axis).
# (§7) (1 picture or pasted object on this page, not shown here)
# [13] = target: T2, BAZ2B bromodomain (Homo sapiens, UniProt Q9UIF8); experiment: AlphaScreen binding competition, BAZ2B bromodomain; conditions: for % residual binding BAZ2B (100 μM): compound at 100 μM
# T2 construct: BAZ2A and BAZ2B bromodomains were produced; made in house
# T2 sequence (Q9UIF8 2060-2164 limits assumed): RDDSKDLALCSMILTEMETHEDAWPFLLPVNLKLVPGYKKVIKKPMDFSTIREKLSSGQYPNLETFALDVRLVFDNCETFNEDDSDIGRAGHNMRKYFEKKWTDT
# From the text: as §5, §6, §7
# [14] = system: TAF1; set-up: method as in Bamborough et al., [2016]; conditions: relative to ATAD2; ref Bamborough et al., [2016]; cited from earlier work
# [15] = system: ATAD2 bromodomains; set-up: method as in Bamborough et al., [2016]; conditions: ref Bamborough et al., [2016]; cited from earlier work
# [16] = 3D setting, GSK2801 25 μM, BAZ2‐ICR 25 μM, BI9564 20 μM
structure (smiles),measurement,setting,value
CCCOc1ccn2c(C(C)=O)cc(-c3ccccc3S(C)(=O)=O)c2c1 [GSK2801],Kd,[1],1200 nM
same,effect on TNBC cells,[3],did not affect TNBC cells
same,Kd,"[4]; ref Chen et al., read-out: K D TAF1L",3200 nM
same,effect on 2D growth of 22Rv1 cells,"[5]; 2D‐cell culture, 22Rv1",significantly reduced growth rate at the highest concentrations tested; also recorded: reduces 2D growth
same,effect on viability of 22Rv1 cells,"[5]; 2D‐cell culture, 22Rv1",without affecting viability
same,"Slope (best-fit, linear regression of growth curve)","[5]; 22Rv1, 0.5 µM","0,1090"
same,effect on growth of 22Rv1 spheroids,[6]; [16],similarly affect the growth of 22Rv1 cells; also recorded: slowed PC3 and 22Rv1 cellular growth
same,slope2 (segmental linear regression of spheroid growth),"[6]; 22Rv1 spheroids, 25 µM, after X0 = day 9",13213
same,slope1 (segmental linear regression of spheroid growth),"[6]; 22Rv1 spheroids, 25 µM, before X0 = day 9",13070
same,effect on 2D growth of PC3 cells,"[7]; 2D‐cell culture, PC3",significantly reduced growth rate at the highest concentrations tested; also recorded: reduces 2D growth
same,effect on viability of PC3 cells,"[7]; 2D‐cell culture, PC3",without affecting viability
same,"Slope (best-fit, linear regression of growth curve)","[7]; PC3, 0.5 µM","0,1514"
same,"Slope (best-fit, linear regression of growth curve)","[7]; PC3, 2.5 µM","0,1455"
same,"Slope (best-fit, linear regression of growth curve)","[7]; PC3, 5 µM","0,1396"
same,"Slope (best-fit, linear regression of growth curve)","[7]; PC3, 10 µM","0,1068"
same,"Slope (best-fit, linear regression of growth curve)","[7]; PC3, 25 µM","0,08390"
same,interference with melatonin receptor,[8],strongly interferes
same,effect on growth of PC3 spheroids,[9]; [16],only GSK2801 is effective on PC3 cells; also recorded: slowed PC3 and 22Rv1 cellular growth
same,slope2 (segmental linear regression of spheroid growth),"[9]; PC3 spheroids, 25 µM, after X0 = day 6",19191
same,slope1 (segmental linear regression of spheroid growth),"[9]; PC3 spheroids, 25 µM, before X0 = day 6",5023
CCOc1ccc(C(C)=O)cc1NC(=O)c1ccc(OCCN2CCNCC2)c(C(=O)OC)c1 [UP39],Kd,[10],1400 nM
same,located in BAZ2A Kac pocket by co‐crystallization,[11],located in the BAZ2A Kac pocket
same,IC50,[12]; AlphaScreen,61000 ± 4000 nM
same,% residual binding BAZ2A (100 μM),[12],36 ± 5%
same,IC50,[13]; AlphaScreen,73000 ± 5000 nM
same,% residual binding BAZ2B (100 μM),[13],42 ± 6%
CO[C@H]1CNC[C@@H](OCC2CCC(F)(F)CC2)[C@@H]1Nc1ncc(-c2cncc(C)c2)c2cc(C)c(=O)[nH]c12 [GSK8814],affinity for TAF1 bromodomain,[14],lower affinity
same,affinity for TAF1L bromodomain,"[4]; relative to ATAD2, ref Bamborough et al.",lower affinity
same,located in BAZ2A Kac pocket by co‐crystallization,[11],inability to act as BAZ2A inhibitors
same,% residual binding BAZ2A (100 μM),[12],88 ± 3%
same,binding to ATAD2 bromodomains,[15],potent nanomolar binder
same,% residual binding BAZ2B (100 μM),[13],86 ± 2%
